In PMC12675575, “A BRET biosensor for measuring uncompetitive engagement of PRMT5 complexes in cells” (Nature Communications, 2025):
“And” between values parts separate entries of the source, which are not always exact repeats. Identical values can stand only once.

Columns and labels:
PRMT7 = target: T1, PRMT7 (Homo sapiens, UniProt Q9NVM4); assay: CBH-002 affinity curve, HEK293, PRMT7-NL fusion; format: cell-based; set-up: BRET, CBH-002 + DMSO / BRET, CBH-002 + GSK3326595: unit not given here; conditions: for BRET, CBH-002 + DMSO / BRET, CBH-002 + GSK3326595: Figure S2C PRMT7-NL, log([CBH-002])
T1 construct: host or cells: HEK293
T1 sequence (Q9NVM4 1-692): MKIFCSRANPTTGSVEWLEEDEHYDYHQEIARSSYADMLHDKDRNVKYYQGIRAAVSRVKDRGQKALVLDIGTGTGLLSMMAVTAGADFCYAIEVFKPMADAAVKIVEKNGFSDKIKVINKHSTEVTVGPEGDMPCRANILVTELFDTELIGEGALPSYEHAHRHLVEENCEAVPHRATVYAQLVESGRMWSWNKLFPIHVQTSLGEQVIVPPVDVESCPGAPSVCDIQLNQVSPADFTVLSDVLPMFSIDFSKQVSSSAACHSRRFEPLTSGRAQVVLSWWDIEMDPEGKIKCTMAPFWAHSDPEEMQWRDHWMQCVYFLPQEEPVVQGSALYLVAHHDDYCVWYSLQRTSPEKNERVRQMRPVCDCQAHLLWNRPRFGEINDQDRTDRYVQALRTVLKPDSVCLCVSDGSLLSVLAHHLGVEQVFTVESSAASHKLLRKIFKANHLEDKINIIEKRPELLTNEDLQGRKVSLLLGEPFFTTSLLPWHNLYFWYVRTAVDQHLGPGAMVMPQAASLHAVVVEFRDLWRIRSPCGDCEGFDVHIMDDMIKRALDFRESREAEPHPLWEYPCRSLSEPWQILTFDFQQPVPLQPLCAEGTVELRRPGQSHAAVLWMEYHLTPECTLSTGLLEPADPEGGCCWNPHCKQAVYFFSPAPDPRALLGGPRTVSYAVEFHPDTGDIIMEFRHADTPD
Description: (§1) HEK293 cells (ATCC) were cultured in DMEM (Thermo Fisher) + 10% (v/v) FBS (Seredigm), and HCT116 cells (Horizon Discovery, #PAR-034 and #R02-033) were cultured in McCoy’s 5A (Thermo Fisher) + 10% FBS, with incubation in a humidified, 37 °C/5% CO2 incubator. Cells were split 1–3 days prior to performing experiments and used at roughly 80% confluency. […] Cells were transfected according to the manufacturer’s protocol using FuGENE HD (Promega). NanoLuc fusion DNA was diluted into Transfection Carrier DNA (Promega) in Opti-MEM at a ratio of 1:9 (mass/mass), and FuGENE HD was added at a ratio of 1:3 (μg DNA:μL lipid). For experiments using WDR77, untagged WDR77 DNA (Promega) was used in place of Carrier DNA. Formed complexes were combined with cells resuspended to a density of 2 × 10^5 cells/mL in Opti-MEM + 1% FBS at a ratio of 1:20 (vol:vol). Cells were plated into a flask and incubated at 37 °C in a humidified 5% CO2 atmosphere for 18–24 h, before being lifted and seeded into 96-well non-binding surface-treated plates (Corning). Cells were seeded at a density of 2 × 10^5 cells/mL in Opti-MEM + 1% FBS in 100 μL (96-well). The BRET probe CBH-002 was prepared first as a 100× stock in 100% DMSO (Sigma) and then diluted to a 20× stock in NanoBRET Tracer Dilution buffer (Promega). Test compounds were prepared as 1000× stocks in 100% DMSO and diluted to 10× stocks in Opti-MEM to prepare working stocks. […] NanoBRET Complete 3x Substrate was prepared by combining Nano-Glo Substrate and Extracellular NanoLuc Inhibitor in Opti-MEM, according to the manufacturer’s protocol (Promega). NanoBRET Complete 3× Substrate was added to cells and plates were measured on either a PheraSTAR FSX equipped with 450 nm (donor) and 610 nm (acceptor) filters, or a GloMAX Discover equipped with 450/8 nm BP (donor) and 600 nm LP (acceptor) filters, using a 0.3 s integration time.
(§2) EC50 values were obtained by fitting the BRET probe and compound affinity curves to a sigmoidal four-parameter fit model in Graphpad Prism:1 Y=Ymin+Ymax−Ymin/1+10^LogEC50−Xh where h is the Hill Slope.

BRD9 = target: T2, BRD9 (Homo sapiens, UniProt Q9H8M2); assay: CBH-002 affinity curve, HEK293, NL-BRD9 fusion (nuclear control); format: cell-based; set-up: BRET, CBH-002 + DMSO / BRET, CBH-002 + GSK3326595: unit not given here; conditions: for BRET, CBH-002 + DMSO / BRET, CBH-002 + GSK3326595: Figure S2F NL-BRD9, log([CBH-002])
T2 construct: host or cells: HEK293
T2 sequence (Q9H8M2 1-597): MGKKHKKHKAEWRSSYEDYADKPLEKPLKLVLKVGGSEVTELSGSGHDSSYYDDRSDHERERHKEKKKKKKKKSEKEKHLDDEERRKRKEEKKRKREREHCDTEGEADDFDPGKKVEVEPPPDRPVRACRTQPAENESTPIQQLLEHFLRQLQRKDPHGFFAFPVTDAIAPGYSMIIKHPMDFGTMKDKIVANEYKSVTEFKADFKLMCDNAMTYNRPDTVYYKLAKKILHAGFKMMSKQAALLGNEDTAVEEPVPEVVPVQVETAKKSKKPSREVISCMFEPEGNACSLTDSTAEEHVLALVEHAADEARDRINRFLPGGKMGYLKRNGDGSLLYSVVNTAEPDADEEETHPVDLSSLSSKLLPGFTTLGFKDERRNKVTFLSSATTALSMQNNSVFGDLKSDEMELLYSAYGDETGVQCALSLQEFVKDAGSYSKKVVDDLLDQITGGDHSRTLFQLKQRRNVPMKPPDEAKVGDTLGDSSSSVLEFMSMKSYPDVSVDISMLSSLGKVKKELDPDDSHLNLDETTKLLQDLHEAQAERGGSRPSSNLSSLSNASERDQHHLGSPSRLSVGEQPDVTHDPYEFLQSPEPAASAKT
Description: as §1, §2

- BRET, CBH-002 + DMSO (PRMT7; uM 0.04576): 3.118 and 3.169 and 3.222
- BRET, CBH-002 + GSK3326595 (PRMT7; uM 0.04576): 2.264 and 3.024 and 2.623
- BRET, CBH-002 + DMSO (PRMT7; uM 0.52288): 4.4157 and 4.315 and 4.82
- BRET, CBH-002 + GSK3326595 (PRMT7; uM 0.52288): 4.289 and 4.449 and 4.432
- BRET, CBH-002 + DMSO (PRMT7; uM 1): 6.788 and 6.4376 and 8.0011
- BRET, CBH-002 + GSK3326595 (PRMT7; uM 1): 6.64 and 6.225 and 5.521
- BRET, CBH-002 + DMSO (PRMT7; uM -0.43136): 2.545 and 2.3934 and 2.684
- BRET, CBH-002 + GSK3326595 (PRMT7; uM -0.43136): 2.418 and 2.903 and 2.394
- BRET, CBH-002 + DMSO (PRMT7; uM -0.90849): 2.174 and 2.245 and 2.2
- BRET, CBH-002 + GSK3326595 (PRMT7; uM -0.90849): 2.014 and 2.113 and 2.172
- BRET, CBH-002 + DMSO (PRMT7; uM -1.20952): 2.33 and 1.992 and 2.793
- BRET, CBH-002 + GSK3326595 (PRMT7; uM -1.20952): 1.945 and 2.184 and 2.019
- BRET, CBH-002 + DMSO (PRMT7; uM -1.68664): 2.292 and 2.046 and 2.033
- BRET, CBH-002 + GSK3326595 (PRMT7; uM -1.68664): 2.038 and 1.973 and 2.006
- BRET, CBH-002 + DMSO (PRMT7; uM -1.98767): 1.964 and 2.061 and 2.054
- BRET, CBH-002 + GSK3326595 (PRMT7; uM -1.98767): 1.921 and 2.272 and 1.954
- BRET, CBH-002 + DMSO (PRMT7; uM -2.46479): 2.032 and 2.041 and 2.0419
- BRET, CBH-002 + GSK3326595 (PRMT7; uM -2.46479): 2.119 and 2.05 and 2.0804
- BRET, CBH-002 + DMSO (PRMT7; uM -2.94191): 1.985 and 2.058 and 2.072
- BRET, CBH-002 + GSK3326595 (PRMT7; uM -2.94191): 1.954 and 1.961 and 1.971
- CBH-002 engagement at PRMT7 (PRMT7; HEK293, PRMT7-NL): did not show engagement
- BRET, CBH-002 + DMSO (BRD9; uM 0.04576): 1.963 and 1.6096 and 1.753
- BRET, CBH-002 + GSK3326595 (BRD9; uM 0.04576): 1.941 and 1.894 and 1.502
- BRET, CBH-002 + DMSO (BRD9; uM 0.52288): 4.746 and 4.673 and 4.368
- BRET, CBH-002 + GSK3326595 (BRD9; uM 0.52288): 4.553 and 4.659 and 4.5888
- BRET, CBH-002 + DMSO (BRD9; uM 1): 11.9924 and 12.071 and 11.0213
- BRET, CBH-002 + GSK3326595 (BRD9; uM 1): 12.0831 and 11.2046 and 11.118
- BRET, CBH-002 + DMSO (BRD9; uM -0.43136): 0.6619 and 0.5821 and 0.5347
- BRET, CBH-002 + GSK3326595 (BRD9; uM -0.43136): 0.7878 and 0.6009 and 0.5811
- CBH-002 engagement at BRD9 (printed BDR9) (BRD9; HEK293, NL-BRD9): did not show engagement
Compound: O=C(CCc1ccc2n1[B-](F)(F)[N+]1=C(c3ccc[nH]3)C=CC1=C2)NCCCCC(=O)N1CCC(Nc2cc(C(=O)NC[C@H](O)CN3CCc4ccccc4C3)ncn2)CC1 [CBH-002]
